Data from patent US9751833B2, “Antimicrobial biguanide metal complexes” (Smith & Nephew PLC, priority 2005, dated 2017).

How the values were obtained:
[1] = test system: Pseudomonas aeruginosa NCIMB 8626; experiment: Zone of inhibition, seeded Mueller-Hinton agar plug-hole assay; type: cell-based; details: 10 mg compound + 200 ul sterile water per 8 mm plug hole, 37° C., 24 hours, triplicates averaged
Procedure: (§1) Pseudomonas aeruginosa NCIMB 8626 and Staphylococcus aureus NCTC 10788 were harvested. Serial 1:10 dilutions were performed to give a final concentration of 10^8 bacteria/ml. Further dilutions were made for an inoculum count, down to […], with the number of bacteria/ml determined using the pour plate method.
(§2) Two large assay plates were then set up and 140 ml of Mueller-Hinton agar was added evenly to the large assay plates and allowed to dry (15 minutes). A further 140 ml of agar was seeded with the corresponding test organism and poured over the previous agar layer. Once the agar had set (15 minutes), the plate was dried at 37° C. for 30 minutes with the lid removed. 8 mm plugs were removed from the plate by biopsy punch.
(§3) In triplicate, 10 mg of the compounds prepared in Examples 1-3 were placed onto each plug hole followed by 200 ul sterile water. The plates were then sealed and incubated at 37° C. for 24 hours. The size of the microbial, including bacterial, zone cleared was measured using a Vernier calliper gauge, triplicates were averaged: […]

[2] = test system: Staphylococcus aureus NCTC 10788; experiment: as above; type: cell-based; details: 10 mg compound + 200 ul sterile water per 8 mm plug hole, 37° C., 24 hours, triplicates averaged
Procedure: as §1, §2, §3

Row | Substance | Zone of Inhibition [1] [mm] | Zone of Inhibition [2] [mm]
1 | Silver(III) Chlorhexidine (1,1′-hexamethylenebis[5-(p-chlorophenyl)biguanide] Complex [Example 1] | 5.4 | 6.4
2 | Silver(III) o-tolybiguanide Complex [Example 3] | 7.4 | 8.4
